Target: T1, phosphoMEK (activated MEK-1) (Homo sapiens, UniProt Q02750)
T1 construct: purchased Upstate (Waltham, Mass.) #14-429, lot #26232U
Assay: ATPase activity of commercially acquired phosphoMEK in the absence of B-Raf
Assay type: biochemical
Details: data not shown

T1 sequence (Q02750 whole entry): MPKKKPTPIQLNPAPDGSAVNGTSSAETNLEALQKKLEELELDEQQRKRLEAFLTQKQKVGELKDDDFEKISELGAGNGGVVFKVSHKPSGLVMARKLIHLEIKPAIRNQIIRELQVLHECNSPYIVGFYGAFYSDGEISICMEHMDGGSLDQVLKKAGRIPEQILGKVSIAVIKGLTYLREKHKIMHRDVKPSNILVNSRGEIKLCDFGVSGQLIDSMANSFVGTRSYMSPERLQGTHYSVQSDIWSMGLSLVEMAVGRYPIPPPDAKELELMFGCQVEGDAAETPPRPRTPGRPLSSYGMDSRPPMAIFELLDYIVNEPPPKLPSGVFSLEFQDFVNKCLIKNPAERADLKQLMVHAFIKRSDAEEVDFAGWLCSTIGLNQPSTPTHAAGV

IC50: > 10 µM
SMILES: CN(C)CCOc1ccc(-c2nc(-c3ccncc3)c(-c3ccc4c(c3)CC/C4=N\O)[nH]2)cc1 [SB-590885]

Source: patent US20060211073A1, “Assay for B-Raf activity based on intrinsic MEK ATPase activity” (priority 2005, published 2006)
